Results reported in patent US6462038B1, “Androgen receptor modulator compounds and methods” (Ligand Pharmaceuticals, Inc., priority 1999, dated 2002).
Read-outs that look alike come from different tables or passages of the source.

Tests used:
Type in all cases: cell-based
hAR [1] = target: T1, hAR (Homo sapiens, UniProt P10275); experiment: co-transfection assay, AR antagonist (in presence of DHT), CV-1 cells; details: for AR Antagonist CV-1 Cells Efficacy (%): hAR in CV-1 cells, maximal inhibition, DHT at EC50
T1 construct: expressed in transfected cells; host or cells: CV-1 cells (African green monkey kidney fibroblasts)
T1 sequence (P10275 1-920): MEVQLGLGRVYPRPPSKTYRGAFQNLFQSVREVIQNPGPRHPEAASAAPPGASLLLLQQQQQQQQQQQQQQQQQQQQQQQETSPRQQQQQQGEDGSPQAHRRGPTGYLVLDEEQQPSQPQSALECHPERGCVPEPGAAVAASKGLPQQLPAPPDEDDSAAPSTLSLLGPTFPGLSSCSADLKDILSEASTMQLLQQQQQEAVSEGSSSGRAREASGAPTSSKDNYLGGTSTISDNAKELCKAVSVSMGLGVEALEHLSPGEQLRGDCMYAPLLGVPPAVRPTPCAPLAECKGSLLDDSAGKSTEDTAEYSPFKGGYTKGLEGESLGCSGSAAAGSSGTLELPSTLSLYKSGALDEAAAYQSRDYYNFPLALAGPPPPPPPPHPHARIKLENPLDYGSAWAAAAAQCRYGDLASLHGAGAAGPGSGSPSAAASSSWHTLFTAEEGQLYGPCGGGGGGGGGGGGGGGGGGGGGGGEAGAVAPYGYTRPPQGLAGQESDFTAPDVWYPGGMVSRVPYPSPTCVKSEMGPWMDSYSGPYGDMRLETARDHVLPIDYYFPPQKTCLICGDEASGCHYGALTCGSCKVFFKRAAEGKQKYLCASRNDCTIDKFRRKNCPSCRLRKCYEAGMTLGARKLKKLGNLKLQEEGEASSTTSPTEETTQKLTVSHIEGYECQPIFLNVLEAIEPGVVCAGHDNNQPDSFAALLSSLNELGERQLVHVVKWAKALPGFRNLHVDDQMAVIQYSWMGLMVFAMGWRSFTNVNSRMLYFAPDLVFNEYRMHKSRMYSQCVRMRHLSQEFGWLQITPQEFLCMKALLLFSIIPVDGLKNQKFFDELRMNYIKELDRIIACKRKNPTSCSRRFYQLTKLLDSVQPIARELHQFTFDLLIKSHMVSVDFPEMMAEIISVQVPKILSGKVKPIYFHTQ

PR = target: T2, PR (Homo sapiens, UniProt P06401); experiment: co-transfection assay, PR agonist
T2 construct: expressed in transfected cells; host or cells: CV-1 cells
T2 sequence (P06401 1-933): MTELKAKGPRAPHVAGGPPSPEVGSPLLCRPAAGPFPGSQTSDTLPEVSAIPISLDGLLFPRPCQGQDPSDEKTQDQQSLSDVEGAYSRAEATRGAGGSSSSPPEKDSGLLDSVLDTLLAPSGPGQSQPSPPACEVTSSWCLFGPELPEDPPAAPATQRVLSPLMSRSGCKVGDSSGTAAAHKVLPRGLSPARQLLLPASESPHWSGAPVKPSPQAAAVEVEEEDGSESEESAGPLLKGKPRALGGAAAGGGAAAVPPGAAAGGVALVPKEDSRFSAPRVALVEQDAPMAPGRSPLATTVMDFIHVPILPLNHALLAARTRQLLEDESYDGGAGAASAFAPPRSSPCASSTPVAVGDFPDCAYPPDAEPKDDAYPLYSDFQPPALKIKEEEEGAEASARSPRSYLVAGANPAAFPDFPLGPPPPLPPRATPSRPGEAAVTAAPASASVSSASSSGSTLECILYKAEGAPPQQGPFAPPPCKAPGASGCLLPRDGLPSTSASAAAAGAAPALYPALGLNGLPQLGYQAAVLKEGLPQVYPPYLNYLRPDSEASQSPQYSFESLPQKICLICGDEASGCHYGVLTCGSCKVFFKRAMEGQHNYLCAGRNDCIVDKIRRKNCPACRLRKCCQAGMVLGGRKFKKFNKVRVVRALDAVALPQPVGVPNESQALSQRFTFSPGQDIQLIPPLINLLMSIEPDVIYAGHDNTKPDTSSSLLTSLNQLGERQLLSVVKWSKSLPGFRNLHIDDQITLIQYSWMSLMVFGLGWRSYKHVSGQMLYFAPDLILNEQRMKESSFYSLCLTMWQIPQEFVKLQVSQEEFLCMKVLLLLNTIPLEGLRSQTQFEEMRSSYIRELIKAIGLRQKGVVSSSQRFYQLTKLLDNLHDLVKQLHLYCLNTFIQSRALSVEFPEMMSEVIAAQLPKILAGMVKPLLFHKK
Procedure: (§1) CV-1 cells (African green monkey kidney fibroblasts) were cultured in the presence of Dulbecco's Modified Eagle Medium (DMEM) supplemented with 10% charcoal resin-stripped fetal bovine serum (CH-FBS) then transferred to 96-well microtiter plates one day prior to transfection.
(§2) Three to four replicates were used for each sample.
(§3) After 40 hours, the cells were washed with PBS, lysed with a Triton X-100-based buffer and assayed for LUC and β-Gal activities using a luminometer or spectrophotometer, respectively. For each replicate, the normalized response (NR) was calculated as: […]

hAR [2] = target: T1, hAR; experiment: co-transfection assay, AR agonist, CV-1 cells; details: for AR Agonist CV-1 Cells Efficacy (%): hAR in CV-1 cells, relative to maximum LUC production by reference agonist
ER = target: T3, ER (Homo sapiens, UniProt P03372); experiment: co-transfection assay, ER antagonist
T3 construct: expressed in transfected cells; host or cells: CV-1 cells
Procedure: as §1, §2, §3

GR = target: T4, GR (Homo sapiens, UniProt P04150); experiment: co-transfection assay, GR antagonist
T4 construct: expressed in transfected cells; host or cells: CV-1 cells
T4 sequence (P04150 1-777): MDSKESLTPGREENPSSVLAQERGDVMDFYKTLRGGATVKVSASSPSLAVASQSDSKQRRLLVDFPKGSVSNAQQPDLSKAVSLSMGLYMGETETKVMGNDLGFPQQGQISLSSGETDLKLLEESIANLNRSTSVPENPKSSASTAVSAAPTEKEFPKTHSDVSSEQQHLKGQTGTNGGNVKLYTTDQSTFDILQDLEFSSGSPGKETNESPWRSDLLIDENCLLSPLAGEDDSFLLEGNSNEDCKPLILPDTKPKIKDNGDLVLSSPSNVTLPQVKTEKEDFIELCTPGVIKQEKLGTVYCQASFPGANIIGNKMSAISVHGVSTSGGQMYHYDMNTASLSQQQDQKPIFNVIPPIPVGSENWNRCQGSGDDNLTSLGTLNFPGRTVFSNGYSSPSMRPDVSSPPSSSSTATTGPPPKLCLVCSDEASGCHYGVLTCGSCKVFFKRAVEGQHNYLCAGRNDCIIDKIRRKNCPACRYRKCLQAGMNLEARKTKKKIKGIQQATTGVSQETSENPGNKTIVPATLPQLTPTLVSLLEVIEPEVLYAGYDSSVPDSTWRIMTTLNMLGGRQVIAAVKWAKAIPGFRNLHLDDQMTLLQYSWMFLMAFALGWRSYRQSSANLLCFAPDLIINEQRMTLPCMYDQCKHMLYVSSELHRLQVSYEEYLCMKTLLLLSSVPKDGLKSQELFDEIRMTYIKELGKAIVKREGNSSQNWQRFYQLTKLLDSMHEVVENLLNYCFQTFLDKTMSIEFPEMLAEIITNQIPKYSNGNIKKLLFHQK
Procedure: as §1, §2, §3

[3] = read-out: AR Potency Agon, Table 2

T3 sequence (P03372 whole entry): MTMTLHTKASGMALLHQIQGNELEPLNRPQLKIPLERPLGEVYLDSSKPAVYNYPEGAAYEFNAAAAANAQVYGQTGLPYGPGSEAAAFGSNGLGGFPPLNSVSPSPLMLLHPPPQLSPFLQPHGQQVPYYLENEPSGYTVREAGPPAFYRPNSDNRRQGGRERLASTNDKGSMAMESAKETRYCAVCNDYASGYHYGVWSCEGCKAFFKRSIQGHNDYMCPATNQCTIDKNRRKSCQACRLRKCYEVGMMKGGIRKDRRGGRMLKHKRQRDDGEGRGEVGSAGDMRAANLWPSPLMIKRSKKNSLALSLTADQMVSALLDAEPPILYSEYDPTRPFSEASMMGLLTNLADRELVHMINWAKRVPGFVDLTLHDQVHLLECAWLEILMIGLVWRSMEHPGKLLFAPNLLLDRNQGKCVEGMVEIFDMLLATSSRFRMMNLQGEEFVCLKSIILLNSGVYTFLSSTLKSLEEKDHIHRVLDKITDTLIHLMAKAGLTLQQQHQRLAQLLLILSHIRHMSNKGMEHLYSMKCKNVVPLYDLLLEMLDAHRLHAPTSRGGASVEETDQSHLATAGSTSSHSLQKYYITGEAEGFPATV

Row | Structure (SMILES) | IC50 (hAR [1]) [µM] | AR Antagonist CV-1 Cells Efficacy (%) (hAR [1]) | EC50 (PR) [µM] | EC50 (hAR [2]) [µM] | AR Agonist CV-1 Cells Efficacy (%) (hAR [2]) | EC50 (hAR [2]; [3]) [µM] | IC50 (ER) [µM] | IC50 (GR) [µM]
1 | CN1CCOc2cc3c(cc21)c(C(F)(F)F)cc(=O)n3C [Compound 102, 1,2,3,6-Tetrahydro-1,6-dimethyl-9-(trifluoromethyl)-7H-[1,4]oxazino[3,2-g]quinolin-7-one] | 0.022 | 58 | > 10 | > 10 | na^1 (na = not active (i.e. efficacy of < 20 and potency of > 10,000 nM for the cotransfection assay, and Ki > 1000 nM for the binding assay)) | > 10 | 5.9 | 3.2
2 | CCN1CCOc2cc3c(cc21)c(C(F)(F)F)cc(=O)n3C [Compound 104, 1-Ethyl-1,2,3,6-tetrahydro-6-methyl-9-(trifluoromethyl)-7H-[1,4]oxazino[3,2-g]quinolin-7-one] | 0.026 | 68 | > 10 | > 10 | na (na = not active (i.e. efficacy of < 20 and potency of > 10,000 nM for the cotransfection assay, and Ki > 1000 nM for the binding assay)) | > 10 | > 10 | 0.83
3 | O=c1cc(C(F)(F)F)c2cc3c(cc2[nH]1)OCCN3CC(F)(F)F [Compound 105, 1,2,3,6-Tetrahydro-1-(2,2,2-trifluoroethyl)-9-(trifluoromethyl)-7H-[1,4]oxazino[3,2-g]quinolin-7-one] | – | – | > 10 | – | – | – | > 10 | 6.7
4 | O=C1COc2cc3[nH]c(=O)cc(C(F)(F)F)c3cc2N1CC(F)(F)F [Compound 137, 1,6-Dihydro-1-(2,2,2-trifluoroethyl)-9-(trifluoromethyl)-3H-[1,4]oxazino[3,2-g]-quinolin-2,7-dione] | 0.018 | 84 | > 10 | > 10 | na (na = not active (i.e. efficacy of < 20 and potency of > 10,000 nM for the cotransfection assay, and Ki > 1000 nM for the binding assay)) | > 10 | > 10 | > 10
